What was measured:
AncCDT-1 = assay: isothermal titration calorimetry; type: binding, synthetic construct; settings: 20 mM Na2HPO4, 150 mM NaCl, pH 7.4, 25 °C; on-column refolded protein
Ws0279 = Ws0279 (Wolinella succinogenes, UniProt Q7MAG0); assay: biochemical; settings: read-out: ΔTM
Pu1068 = biological target: T1, Pu1068 (Candidatus Pelagibacter communis, UniProt Q4FLR5); assay: intrinsic tryptophan fluorescence titration; type: binding
T1 sequence (Q4FLR5 19-255): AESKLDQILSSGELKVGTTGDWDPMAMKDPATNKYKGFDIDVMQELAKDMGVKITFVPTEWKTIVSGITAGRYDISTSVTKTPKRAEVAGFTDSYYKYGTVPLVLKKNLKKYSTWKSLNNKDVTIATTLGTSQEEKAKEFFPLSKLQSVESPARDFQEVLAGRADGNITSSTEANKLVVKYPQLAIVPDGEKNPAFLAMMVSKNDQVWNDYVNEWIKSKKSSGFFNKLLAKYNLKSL

Sequence of Ws0279 (Q7MAG0 24-258): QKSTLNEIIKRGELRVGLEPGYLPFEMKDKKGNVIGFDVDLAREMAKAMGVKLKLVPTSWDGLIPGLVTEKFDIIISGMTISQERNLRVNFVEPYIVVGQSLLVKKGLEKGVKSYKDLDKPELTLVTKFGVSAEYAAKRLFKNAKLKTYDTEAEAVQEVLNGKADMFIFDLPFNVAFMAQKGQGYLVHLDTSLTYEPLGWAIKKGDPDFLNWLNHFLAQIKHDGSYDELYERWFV

Row | SMILES | Kd (AncCDT-1) [nM] | ΔTm at 10000 µM (Ws0279) [°C] | Kd (Pu1068) [nM]
1 | N=C(N)NCCC[C@H](N)C(=O)O [L-arginine] | 320 | – | –
2 | N[C@@H](Cc1cnc[nH]1)C(=O)O [L-histidine] | 2300 | – | –
3 | NCCCC[C@H](N)C(=O)O [L-lysine] | 6700 | 7.2 | –
4 | NCCC[C@H](N)C(=O)O [L-ornithine] | 1200 | – | –
5 | C[N+]1(CCCS(=O)(=O)[O-])CCCCC1 [NDSB-221, 3-(1-methylpiperidinium-1-yl)propane-1-sulfonate] | – | – | 530000

From doi:10.1101/157495v1 (biorxiv, 2017)
